The source of these data is ChEMBL document CHEMBL1155344, “Synthesis of some new 1,2,4-triazoles starting from isonicotinic acid hydrazide and evaluation of their antimicrobial activities” (2009).

Test [1] concerns Candida tropicalis. In words: Antimicrobial activity against Candida tropicalis ATCC 13803 after 18 hrs by well diffusion method. The format is functional. In general terms: A growth-free zone around the sample is the usual read-out of agar diffusion tests.
The test system of test [2] is Candida albicans. Put plainly: Antimicrobial activity against Candida albicans ATCC 60193 after 18 hrs by well diffusion method. The format is functional.
The test system of test [3] is Enterococcus faecalis. Put plainly: Antimicrobial activity against Enterococcus faecalis ATCC 29212 after 18 hrs by well diffusion method. The format is functional.
The subject of test [4] is Staphylococcus aureus. Put plainly: Antimicrobial activity against Staphylococcus aureus ATCC 25923 after 18 hrs by well diffusion method. The test is classed as functional.
Test [5] deals with Pseudomonas aeruginosa. In words: Antimicrobial activity against Pseudomonas aeruginosa ATCC 27853 after 18 hrs by well diffusion method. The format is functional.
The subject of test [6] is Bacillus cereus. In words: Antimicrobial activity against Bacillus cereus 702 Roma after 18 hrs by well diffusion method. The format is functional.
The test system of test [7] is Escherichia coli. Put plainly: Antimicrobial activity against Escherichia coli ATCC 25922 after 18 hrs by well diffusion method. The format is functional.
The test system of test [8] is Escherichia coli. In words: Antimicrobial activity against Escherichia coli ATCC 25922 at 5 ug after 18 hrs by well diffusion method. The format is functional, organism-based.
The test system of test [9] is Pseudomonas aeruginosa. Put plainly: Antimicrobial activity against Pseudomonas aeruginosa ATCC 27853 at 5 ug after 18 hrs by well diffusion method. The format is functional, organism-based.
Test [10] relates to Staphylococcus aureus. Put plainly: Antimicrobial activity against Staphylococcus aureus ATCC 25923 at 5 ug after 18 hrs by well diffusion method. The format is functional, organism-based.
In test [11] the test system is Candida albicans. Put plainly: Antimicrobial activity against Candida albicans ATCC 60193 at 5 ug after 18 hrs by well diffusion method. The test is classed as functional. Particulars: ATCC 60193, 18 h, read-out: IZ.
Test [12] concerns Candida tropicalis. In words: Antimicrobial activity against Candida tropicalis ATCC 13803 at 5 ug after 18 hrs by well diffusion method. The test is classed as functional. Particulars: ATCC 13803, 18 h, read-out: IZ.
In test [13] the test system is Yersinia pseudotuberculosis. Put plainly: Antimicrobial activity against Yersinia pseudotuberculosis ATCC 911 at 5 ug after 18 hrs by well diffusion method. The format is functional, organism-based.
The subject of test [14] is Enterococcus faecalis. Put plainly: Antimicrobial activity against Enterococcus faecalis ATCC 29212 at 5 ug after 18 hrs by well diffusion method. The test is classed as functional, organism-based.
Test [15] concerns Bacillus cereus. Put plainly: Antimicrobial activity against Bacillus cereus 702 Roma at 5 ug after 18 hrs by well diffusion method. The test is classed as functional, organism-based.
In test [16] the test system is Yersinia pseudotuberculosis. Put plainly: Antimicrobial activity against Yersinia pseudotuberculosis ATCC 911after 18 hrs by well diffusion method. The test is classed as functional.
Test [17] deals with Staphylococcus aureus. Put plainly: Antimicrobial activity against Staphylococcus aureus ATCC 25923 at 10 ug after 18 hrs by well diffusion method. Particulars: ATCC 25923, 18 h, read-out: IZ. The format is functional.
The test system of test [18] is Bacillus cereus. In words: Antimicrobial activity against Bacillus cereus 702 Roma at 10 ug after 18 hrs by well diffusion method. The test is classed as functional. Particulars: read-out: IZ.
The subject of test [19] is Candida tropicalis. In words: Antimicrobial activity against Candida tropicalis ATCC 13803 at 10 ug after 18 hrs by well diffusion method. The format is functional, organism-based.
Test [20] relates to Candida albicans. Put plainly: Antimicrobial activity against Candida albicans ATCC 60193 at 10 ug after 18 hrs by well diffusion method. The test is classed as functional, organism-based.
In test [21] the test system is Escherichia coli. Put plainly: Antimicrobial activity against Escherichia coli ATCC 25922 at 10 ug after 18 hrs by well diffusion method. The test is classed as functional. Particulars: ATCC 25922, 18 h, read-out: IZ.
Test [22] concerns Enterococcus faecalis. Put plainly: Antimicrobial activity against Enterococcus faecalis ATCC 29212 at 10 ug after 18 hrs by well diffusion method. The test is classed as functional. Particulars: ATCC 29212, 18 h, read-out: IZ.
Test [23] deals with Pseudomonas aeruginosa. In words: Antimicrobial activity against Pseudomonas aeruginosa ATCC 27853 at 10 ug after 18 hrs by well diffusion method. The test is classed as functional. Particulars: ATCC 27853, 18 h, read-out: IZ.
Test [24] deals with Yersinia pseudotuberculosis. Put plainly: Antimicrobial activity against Yersinia pseudotuberculosis ATCC 911 at 10 ug after 18 hrs by well diffusion method. Particulars: ATCC 911, 18 h, read-out: IZ. The format is functional.

Active and inactive are the calls of the source. No cut-off for these calls is given here.

As for `CCSc1nnc(-c2ccncc2)n1N`, the “inhibition zone (IZ)” value in the test on Candida tropicalis [1] is listed as 8 mm; in the test on Candida albicans [2], 8 mm; in the test with Enterococcus faecalis [3], 25 mm; in the test on Staphylococcus aureus [4] it was 25 mm; with Pseudomonas aeruginosa [5], 25 mm; in the test with Bacillus cereus [6] it was 20 mm. Besides, the “inhibition zone (IZ)” value in the test on Escherichia coli [7] came to 30 mm.

As for `OC(Cn1cncn1)(Cn1cncn1)c1ccc(F)cc1F` [FLUCONAZOLE], the “inhibition zone (IZ)” value (in the test on Escherichia coli [8]; with Pseudomonas aeruginosa [9]; in the test on Staphylococcus aureus [10]; in test [13]; in the test with Enterococcus faecalis [14]; in the test on Bacillus cereus [15]) was “inactive” each time. For the same compound, the zone of inhibition at 5 µg/disc with Candida albicans [11] and in the test with Candida tropicalis [12] was 25 mm each time.

As for `CN1CCN(Cn2nc(-c3ccncc3)n(N)c2=S)CC1`, the “inhibition zone (IZ)” value with Candida tropicalis [1] and with Candida albicans [2] was “inactive” each time. Moreover, the “inhibition zone (IZ)” value with Enterococcus faecalis [3] stood at 25 mm; in the test with Staphylococcus aureus [4], 28 mm; in test [16], 24 mm; in the test with Pseudomonas aeruginosa [5], 35 mm; with Bacillus cereus [6], 22 mm; in the test on Escherichia coli [7], 30 mm.

For the compound `CN1CCN(Cn2nc(-c3ccncc3)n(/N=C/c3ccc(F)cc3)c2=S)CC1`, the “inhibition zone (IZ)” value (with Candida tropicalis [1]; in the test with Candida albicans [2]; in the test on Enterococcus faecalis [3]; with Staphylococcus aureus [4]; in test [16]; in the test on Pseudomonas aeruginosa [5]) was “inactive” each time. The “inhibition zone (IZ)” value in the test with Bacillus cereus [6] and with Escherichia coli [7] was “inactive” throughout.

Regarding `Nn1c(S)nnc1-c1ccncc1`, the “inhibition zone (IZ)” value in the test with Candida tropicalis [1] and in the test on Candida albicans [2] was “inactive” in each case. In addition, the “inhibition zone (IZ)” value is 24 mm in the test with Enterococcus faecalis [3]; 34 mm with Staphylococcus aureus [4]; 30 mm in test [16]; 42 mm in the test on Pseudomonas aeruginosa [5]; 20 mm in the test on Bacillus cereus [6]; 34 mm in the test on Escherichia coli [7].

For the compound `Fc1ccc(/C=N/n2c(-c3ccncc3)n[nH]c2=S)cc1`, the “inhibition zone (IZ)” value was 8 mm with Candida tropicalis [1], 8 mm with Candida albicans [2] and 7 mm in the test with Bacillus cereus [6]. Further, the “inhibition zone (IZ)” value (with Enterococcus faecalis [3]; in the test on Staphylococcus aureus [4]; in test [16]; in the test with Pseudomonas aeruginosa [5]; in the test on Escherichia coli [7]) was “inactive” each time.

On to `Nn1c(-c2ccncc2)nn(CN2CCOCC2)c1=S`, for which the “inhibition zone (IZ)” value in the test on Candida tropicalis [1], in the test with Candida albicans [2], in the test with Enterococcus faecalis [3], with Staphylococcus aureus [4], in the test on Pseudomonas aeruginosa [5] and in the test on Bacillus cereus [6] was “inactive” throughout. Moreover, the “inhibition zone (IZ)” value in test [16] turned out to be 13 mm; with Escherichia coli [7], 20 mm.

Regarding `Nn1c(-c2ccncc2)nn(CNCCN2CCOCC2)c1=S`, the “inhibition zone (IZ)” value (in the test with Candida tropicalis [1]; in the test with Candida albicans [2]; with Enterococcus faecalis [3]; in the test on Staphylococcus aureus [4]; in test [16]; with Pseudomonas aeruginosa [5]) was “inactive” each time. Further, the “inhibition zone (IZ)” value in the test on Bacillus cereus [6] and in the test on Escherichia coli [7] was “inactive” in each case.

Turning to `CCSc1nnc(-c2ccncc2)o1`, the “inhibition zone (IZ)” value in the test on Candida tropicalis [1] is listed as 7 mm; with Candida albicans [2], 7 mm; in the test with Enterococcus faecalis [3], 25 mm; in the test on Staphylococcus aureus [4], 25 mm; in test [16] it was 22 mm; in the test with Pseudomonas aeruginosa [5], 25 mm. Further, the “inhibition zone (IZ)” value is listed as 18 mm in the test on Bacillus cereus [6] and 30 mm in the test on Escherichia coli [7].

As for `S=c1[nH]nc(-c2ccncc2)o1`, the figures for the “inhibition zone (IZ)” value in the test on Candida tropicalis [1], in the test with Candida albicans [2] and in the test with Staphylococcus aureus [4] were 30 mm, 25 mm and 10 mm, respectively. The “inhibition zone (IZ)” value (in the test on Enterococcus faecalis [3]; in [16]; with Pseudomonas aeruginosa [5]; with Bacillus cereus [6]; in the test on Escherichia coli [7]) was “inactive” each time.

On to `S=c1oc(-c2ccncc2)nn1CNCCN1CCOCC1`, for which the “inhibition zone (IZ)” value with Candida tropicalis [1] and in the test on Candida albicans [2] was “inactive” in each case. The “inhibition zone (IZ)” value worked out at 15 mm in the test on Enterococcus faecalis [3]; 14 mm in the test on Staphylococcus aureus [4]; 13 mm in test [16]; 13 mm with Pseudomonas aeruginosa [5]; 14 mm in the test with Bacillus cereus [6]; 13 mm in the test on Escherichia coli [7].

As for `CC1(C)S[C@@H]2[C@H](NC(=O)[C@H](N)c3ccccc3)C(=O)N2[C@H]1C(=O)O` [AMPICILLIN], the zone of inhibition at 10 µg/disc in the test with Staphylococcus aureus [17] was found to be 35 mm; with Bacillus cereus [18], 15 mm; with Escherichia coli [21], 10 mm; in the test on Enterococcus faecalis [22] it was 10 mm; in the test with Pseudomonas aeruginosa [23], 18 mm; in [24], 18 mm. Moreover, the “inhibition zone (IZ)” value in the test on Candida tropicalis [19] and in the test with Candida albicans [20] was “inactive” in each case.

Regarding `CN1CCN(Cn2nc(-c3ccncc3)oc2=S)CC1`, the “inhibition zone (IZ)” value in the test on Candida tropicalis [1] and with Candida albicans [2] was “inactive” throughout. For the same compound, the “inhibition zone (IZ)” value in the test with Enterococcus faecalis [3] worked out at 17 mm; in the test on Staphylococcus aureus [4] it was 17 mm; in test [16] it was 15 mm; with Pseudomonas aeruginosa [5], 28 mm; with Bacillus cereus [6], 17 mm; in the test with Escherichia coli [7] it was 23 mm.

On to `S=c1[nH]nc(-c2ccncc2)n1/N=C/c1c[nH]c2ccccc12`, for which the “inhibition zone (IZ)” value (with Candida tropicalis [1]; with Candida albicans [2]; in the test with Enterococcus faecalis [3]; in the test on Staphylococcus aureus [4]; in test [16]; with Pseudomonas aeruginosa [5]) was “inactive” in each case. For the same compound, the “inhibition zone (IZ)” value with Bacillus cereus [6] and with Escherichia coli [7] was “inactive” in each case.
